According to the supplement of paper PMC11061612:

Key:
D-263MG (Glioblastoma) = assay: Bliss excess, mean over the matrix (fraction); higher = more synergy;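 further: after 72 h of two-drug dosing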
Procedure, shortened: (§1)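 Cell lines in DMEM/F12 or RPMI with 10% FBS were plated in 1536-well plates, held 24 hours at 37°C, 5% CO2, then given two-drug dose matrices for 72 hours (DMSO typically 0.2%). Viability was read by CellTiter-Glo 2.0 luminescence and scaled as inhibition from 0 (vehicle wells) to 1 (blank wells). Combination Emax is the second-highest inhibition in the matrix; Bliss excess is observed combination effect minus expected EA + EB − EA·EB, EA and EB being single-agent effects.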

ACHN (Kidney Carcinoma) = assay: combination Emax (second highest fraction inhibited in the dose matrix, 72 h); higher = more inhibition; extreme values may be limits of the assay
Procedure, shortened: as §1

EW-24 (Ewing's Sarcoma) = assay: as above
Procedure, shortened: as §1

[1] = test system: EoL-1-cell (Acute Myeloid Leukemia); assay: as above
Procedure, shortened: as §1

[2] = test system: Hs-766T (Pancreatic Carcinoma); assay: as above
Procedure, shortened: as §1

[3] = test system: KARPAS-299 (T-Cell Non-Hodgkin's Lymphoma); assay: as above
Procedure, shortened: as §1

[4] = test system: KYSE-450 (Esophageal Squamous Cell Carcinoma); assay: as above
Procedure, shortened: as §1

NB69 (Neuroblastoma) = assay: as above
Procedure, shortened: as §1

[5] = test system: NCI-H358 (Lung Adenocarcinoma); assay: as above
Procedure, shortened: as §1

[6] = test system: NCI-H727 (Other Solid Carcinomas); assay: as above
Procedure, shortened: as §1

[7] = test system: RF-48 (B-Cell Non-Hodgkin's Lymphoma); assay: as above
Procedure, shortened: as §1

UACC-62 (Melanoma) = assay: as above
Procedure, shortened: as §1

C=CCn1c(=O)c2cnc(Nc3ccc(N4CCN(C)CC4)cc3)nc2n1-c1cccc(C(C)(C)O)n1 [AZD1775] + CCc1c2c(nc3ccc(O)cc13)-c1cc3c(c(=O)n1C2)COC(=O)[C@]3(O)CC [SN-38] (first compound max 1 µM, partner max 0.3 µM)
Bliss excess (D-263MG (Glioblastoma)): 0.0132
combination Emax (ACHN (Kidney Carcinoma)): 0.946
combination Emax (EW-24 (Ewing's Sarcoma)): 0.782
combination Emax [1]: 1
combination Emax [2]: 0.537
combination Emax [3]: 0.971
combination Emax [4]: 0.951
combination Emax (NB69 (Neuroblastoma)): 0.997
combination Emax [5]: 0.687
combination Emax [6]: 0.514
combination Emax [7]: 0.783
combination Emax (UACC-62 (Melanoma)): 0.745

C=CCn1c(=O)c2cnc(Nc3ccc(N4CCN(C)CC4)cc3)nc2n1-c1cccc(C(C)(C)O)n1 [AZD1775] + Nc1ccn([C@@H]2O[C@H](CO)[C@@H](O)C2(F)F)c(=O)n1 [Gemcitabine] (first compound max 1 µM, partner max 0.3 µM)
Bliss excess (D-263MG (Glioblastoma)): 0.0297
combination Emax (ACHN (Kidney Carcinoma)): 0.853
combination Emax (EW-24 (Ewing's Sarcoma)): 0.658
combination Emax [1]: 1
combination Emax [2]: 0.42
combination Emax [3]: 0.976
combination Emax [4]: 0.875
combination Emax (NB69 (Neuroblastoma)): 1
combination Emax [5]: 0.516
combination Emax [6]: 0.392
combination Emax [7]: 0.727
combination Emax (UACC-62 (Melanoma)): 0.73

CN(CCO)CC[C@H](CSc1ccccc1)Nc1ccc(S(=O)(=O)NC(=O)c2ccc(N3CCC([C@@H](O)c4ccccc4-c4ccc(Cl)cc4)CC3)cc2)cc1S(=O)(=O)C(F)(F)F [AZD4320] + CS(=O)(=O)CCNCc1ccc(-c2ccc3ncnc(Nc4ccc(OCc5cccc(F)c5)c(Cl)c4)c3c2)o1 [Lapatinib] (first compound max 1 µM, 7x7, partner max 10 µM)
Bliss excess (D-263MG (Glioblastoma)): -0.0288
combination Emax (ACHN (Kidney Carcinoma)): 0.466
combination Emax (EW-24 (Ewing's Sarcoma)): 0.931
combination Emax [1]: 1
combination Emax [2]: 0.435
combination Emax [3]: 0.204
combination Emax [4]: 0.41
combination Emax (NB69 (Neuroblastoma)): 0.983
combination Emax [5]: 0.629
combination Emax [6]: 0.96
combination Emax [7]: 0.874
combination Emax (UACC-62 (Melanoma)): 0.362

Cc1c2c(nn1C)CSCc1cc(n(C)n1)CSc1cc(c3ccccc3c1)OCCCc1c(C(=O)O)n(C)c3c-2c(Cl)ccc13 [AZD5991] + CC(=O)O[C@H]1C(=O)[C@@]2(C)[C@H]([C@H](OC(=O)c3ccccc3)[C@]3(O)C[C@H](OC(=O)[C@H](O)[C@@H](NC(=O)c4ccccc4)c4ccccc4)C(C)=C1C3(C)C)[C@]1(OC(C)=O)CO[C@@H]1C[C@@H]2O [Paclitaxel] (first compound max 1 µM, 7x7, partner max 3 µM)
Bliss excess (D-263MG (Glioblastoma)): 0.206
combination Emax (ACHN (Kidney Carcinoma)): 0.604
combination Emax (EW-24 (Ewing's Sarcoma)): 0.734
combination Emax [1]: 1
combination Emax [2]: 0.304
combination Emax [3]: 1
combination Emax [4]: 0.847
combination Emax (NB69 (Neuroblastoma)): 1
combination Emax [5]: 0.818
combination Emax [6]: 0.136
combination Emax [7]: 0.807
combination Emax (UACC-62 (Melanoma)): 0.831

Cc1c2c(nn1C)CSCc1cc(n(C)n1)CSc1cc(c3ccccc3c1)OCCCc1c(C(=O)O)n(C)c3c-2c(Cl)ccc13 [AZD5991] + CS(=O)(=O)CCNCc1ccc(-c2ccc3ncnc(Nc4ccc(OCc5cccc(F)c5)c(Cl)c4)c3c2)o1 [Lapatinib] (first compound max 1 µM, 7x7, partner max 10 µM)
Bliss excess (D-263MG (Glioblastoma)): -0.0735
combination Emax (ACHN (Kidney Carcinoma)): 0.481
combination Emax (EW-24 (Ewing's Sarcoma)): 0.32
combination Emax [1]: 1
combination Emax [2]: 0.188
combination Emax [3]: 0.952
combination Emax [4]: 0.541
combination Emax (NB69 (Neuroblastoma)): 0.902
combination Emax [5]: 0.478
combination Emax [6]: 0.299
combination Emax [7]: 0.244
combination Emax (UACC-62 (Melanoma)): 0.576

Cc1c2c(nn1C)CSCc1cc(n(C)n1)CSc1cc(c3ccccc3c1)OCCCc1c(C(=O)O)n(C)c3c-2c(Cl)ccc13 [AZD5991] + Nc1ccn([C@@H]2O[C@H](CO)[C@@H](O)C2(F)F)c(=O)n1 [Gemcitabine] (first compound max 1 µM, 7x7, partner max 0.3 µM)
Bliss excess (D-263MG (Glioblastoma)): 0.08
combination Emax (ACHN (Kidney Carcinoma)): 0.744
combination Emax (EW-24 (Ewing's Sarcoma)): 0.672
combination Emax [1]: 1
combination Emax [2]: 0.332
combination Emax [3]: 0.979
combination Emax [4]: 0.459
combination Emax (NB69 (Neuroblastoma)): 0.99
combination Emax [5]: 0.381
combination Emax [6]: 0.283
combination Emax [7]: 0.679
combination Emax (UACC-62 (Melanoma)): 0.753

C[C@@H]1COCCN1c1cc(C2([S@](C)(=N)=O)CC2)nc(-c2ccnc3[nH]ccc23)n1 [AZD6738] + C1CC(C1)(C(=O)[O-])C(=O)[O-].N.N.[Pt+2] [Carboplatin] (first compound max 10 µM, 7x7, partner max 10 µM)
Bliss excess (D-263MG (Glioblastoma)): -0.0417
combination Emax (ACHN (Kidney Carcinoma)): 0.819
combination Emax (EW-24 (Ewing's Sarcoma)): 0.703
combination Emax [1]: 0.97
combination Emax [2]: 0.442
combination Emax [3]: 0.926
combination Emax [4]: 0.312
combination Emax (NB69 (Neuroblastoma)): 0.857
combination Emax [5]: 0.505
combination Emax [6]: 0.472
combination Emax [7]: 0.329
combination Emax (UACC-62 (Melanoma)): 0.246

C[C@@H]1COCCN1c1cc(C2([S@](C)(=N)=O)CC2)nc(-c2ccnc3[nH]ccc23)n1 [AZD6738] + Nc1ccn([C@@H]2O[C@H](CO)[C@@H](O)C2(F)F)c(=O)n1 [Gemcitabine] (first compound max 10 µM, 7x7, partner max 0.3 µM)
Bliss excess (D-263MG (Glioblastoma)): 0.102
combination Emax (ACHN (Kidney Carcinoma)): 0.875
combination Emax (EW-24 (Ewing's Sarcoma)): 0.8
combination Emax [1]: 1
combination Emax [2]: 0.505
combination Emax [3]: 0.997
combination Emax [4]: 0.862
combination Emax (NB69 (Neuroblastoma)): 1
combination Emax [5]: 0.733
combination Emax [6]: 0.526
combination Emax [7]: 0.77
combination Emax (UACC-62 (Melanoma)): 0.757

C[C@@H](Nc1cc(F)cc(F)c1)c1cc(C(=O)N(C)C)cc2c(=O)cc(N3CCOCC3)oc12 [AZD8186] + C1CN(CCC1(C(=O)N[C@@H](CCO)C2=CC=C(C=C2)Cl)N)C3=NC=NC4=C3C=CN4 [AZD5363] (first compound max 10 µM, 7x7, partner max 10 µM)
Bliss excess (D-263MG (Glioblastoma)): -0.0348
combination Emax (ACHN (Kidney Carcinoma)): 0.414
combination Emax (EW-24 (Ewing's Sarcoma)): 0.447
combination Emax [1]: 0.816
combination Emax [2]: 0.336
combination Emax [3]: 0.263
combination Emax [4]: 0.31
combination Emax (NB69 (Neuroblastoma)): 0.659
combination Emax [5]: 0.33
combination Emax [6]: 0.411
combination Emax [7]: 0.432
combination Emax (UACC-62 (Melanoma)): 0.514

C[C@@H](Nc1cc(F)cc(F)c1)c1cc(C(=O)N(C)C)cc2c(=O)cc(N3CCOCC3)oc12 [AZD8186] + CC(=O)c1c(C)c2cnc(Nc3ccc(N4CCNCC4)cn3)nc2n(C2CCCC2)c1=O [Palbociclib] (first compound max 10 µM, 7x7, partner max 10 µM)
Bliss excess (D-263MG (Glioblastoma)): 0.0181
combination Emax (ACHN (Kidney Carcinoma)): 0.661
combination Emax (EW-24 (Ewing's Sarcoma)): 0.563
combination Emax [1]: 0.551
combination Emax [2]: 0.441
combination Emax [3]: 0.345
combination Emax [4]: 0.378
combination Emax (NB69 (Neuroblastoma)): 0.927
combination Emax [5]: 0.398
combination Emax [6]: 0.362
combination Emax [7]: 0.4
combination Emax (UACC-62 (Melanoma)): 0.51

C[C@@H](Oc1cc(-c2cnn(C3CCNCC3)c2)cnc1N)c1c(Cl)ccc(F)c1Cl [Crizotinib] + CC1=C(C(=CC=C1)Cl)NC(=O)C2=CN=C(S2)NC3=CC(=NC(=N3)C)N4CCN(CC4)CCO [Dasatinib] (first compound max 10 µM, 7x7, partner max 2 µM)
Bliss excess (D-263MG (Glioblastoma)): 0.0932
combination Emax (ACHN (Kidney Carcinoma)): 0.756
combination Emax (EW-24 (Ewing's Sarcoma)): 0.738
combination Emax [1]: 1
combination Emax [2]: 0.533
combination Emax [3]: 0.888
combination Emax [4]: 0.567
combination Emax (NB69 (Neuroblastoma)): 0.951
combination Emax [5]: 0.607
combination Emax [6]: 0.79
combination Emax [7]: 0.365
combination Emax (UACC-62 (Melanoma)): 0.345

C[C@@H](Oc1cc(-c2cnn(C3CCNCC3)c2)cnc1N)c1c(Cl)ccc(F)c1Cl [Crizotinib] + Cn1cnc2c(F)c(Nc3ccc(Br)cc3Cl)c(C(=O)NOCCO)cc21 [Selumetinib] (first compound max 10 µM, 7x7, partner max 10 µM)
Bliss excess (D-263MG (Glioblastoma)): -0.0866
combination Emax (ACHN (Kidney Carcinoma)): 0.572
combination Emax (EW-24 (Ewing's Sarcoma)): 0.545
combination Emax [1]: 1
combination Emax [2]: 0.516
combination Emax [3]: 0.895
combination Emax [4]: 0.381
combination Emax (NB69 (Neuroblastoma)): 1
combination Emax [5]: 0.587
combination Emax [6]: 0.958
combination Emax [7]: 0.306
combination Emax (UACC-62 (Melanoma)): 0.782

CS(=O)(=O)CCNCc1ccc(-c2ccc3ncnc(Nc4ccc(OCc5cccc(F)c5)c(Cl)c4)c3c2)o1 [Lapatinib] + Cn1cnc2c(F)c(Nc3ccc(Br)cc3Cl)c(C(=O)NOCCO)cc21 [Selumetinib] (first compound max 10 µM, 7x7, partner max 10 µM)
Bliss excess (D-263MG (Glioblastoma)): -0.0859
combination Emax (ACHN (Kidney Carcinoma)): 0.577
combination Emax (EW-24 (Ewing's Sarcoma)): 0.222
combination Emax [1]: 0.832
combination Emax [2]: 0.582
combination Emax [3]: 0.446
combination Emax [4]: 0.41
combination Emax (NB69 (Neuroblastoma)): 0.916
combination Emax [5]: 0.621
combination Emax [6]: 0.631
combination Emax [7]: 0.275
combination Emax (UACC-62 (Melanoma)): 0.831

O=C(c1cc(Cc2n[nH]c(=O)c3ccccc23)ccc1F)N1CCN(C(=O)C2CC2)CC1 [Olaparib] + CC1(C)CCC(CN2CCN(c3ccc(C(=O)NS(=O)(=O)c4ccc(NCC5CCOCC5)c([N+](=O)[O-])c4)c(Oc4cnc5[nH]ccc5c4)c3)CC2)=C(c2ccc(Cl)cc2)C1 [Venetoclax] (first compound max 10 µM, 7x7, partner max 1 µM)
Bliss excess (D-263MG (Glioblastoma)): -0.0659
combination Emax (ACHN (Kidney Carcinoma)): 0.143
combination Emax (EW-24 (Ewing's Sarcoma)): 0.195
combination Emax [1]: 0.99
combination Emax [2]: 0.135
combination Emax [3]: 0.306
combination Emax [4]: 0.0027
combination Emax (NB69 (Neuroblastoma)): 0.643
combination Emax [5]: 0.133
combination Emax [6]: 0.119
combination Emax [7]: 0.606
combination Emax (UACC-62 (Melanoma)): 0.213

O=C(c1cc(Cc2n[nH]c(=O)c3ccccc23)ccc1F)N1CCN(C(=O)C2CC2)CC1 [Olaparib] + CN(CC[C@H](CSC1=CC=CC=C1)NC2=C(C=C(C=C2)S(=O)(=O)NC(=O)C3=CC=C(C=C3)N4CCC(CC4)[C@H](C5=CC=CC=C5C6=CC=C(C=C6)Cl)O)S(=O)(=O)C(F)(F)F)CCO [AZD4320] (first compound max 10 µM, 7x7, partner max 1 µM)
Bliss excess (D-263MG (Glioblastoma)): -0.0672
combination Emax (ACHN (Kidney Carcinoma)): 0.154
combination Emax (EW-24 (Ewing's Sarcoma)): 0.606
combination Emax [1]: 1
combination Emax [2]: 0.219
combination Emax [3]: 0.432
combination Emax [4]: 0.0781
combination Emax (NB69 (Neuroblastoma)): 0.943
combination Emax [5]: 0.182
combination Emax [6]: 0.433
combination Emax [7]: 0.926
combination Emax (UACC-62 (Melanoma)): 0.198
